System: Human hepatocarcinoma cell line (Hep G2)
Experiment: Cytotoxicity assay (MTT)
Type: cell-based
Conditions: SDS 0.1%, assay positive control

## CCCCCCCCCCCCOS(=O)(=O)[O-].[Na+] [SDS (0.1%)]
  Hep G2 percent viability: ^b 1%

— article PMC7917639, “Nopol-Based Quinoline Derivatives as Antiplasmodial Agents” (Molecules, 2021)
